Measured values published in US20230263822A1, “MODULATION OF FACTOR 11 EXPRESSION” (Ionis Pharmaceuticals, Inc., priority 2008, published 2023).
Like-named read-outs stand apart in the source and are kept apart here. Strand notation (5' to 3'): a small letter for the sugar, then the base; units joined by * are phosphorothioate-linked, units joined directly phosphodiester-linked; [ ] holds rarer units or linkages, { } end groups; capitals alone tell only the bases. e = 2'-O-(2-methoxyethyl) (MOE); [5mC] = 5-methylcytosine; d = 2'-deoxy (DNA)

Assays:
[1] = mouse, in vivo, sc, 50 mg/kg
[2] = mouse, in vivo, sc, 50 mg/kg; remark: listed apart in the source
[3] = mouse, in vivo, sc, 50 mg/kg; remark: listed apart in the source
[4] = rat, in vivo, sc, 50 mg/kg
[5] = rat, in vivo, sc, 50 mg/kg; remark: listed apart in the source
[6] = rat, in vivo, sc, 50 mg/kg; remark: listed apart in the source
[7] = mouse, in vivo, sc, 50 mg/kg; remark: listed apart in the source
[8] = system: human Factor 11 mRNA; assay: Antisense inhibition of human Factor 11 in HepG2 cells, electroporation, 8,000 nM (Example 30); format: cell-based; conditions: electroporation, 8,000 nM antisense oligonucleotide
How it was run: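 HepG2 cells electroporated with 8,000 nM 5-10-5, 5-8-5 or 6-8-6 MOE gapmers (phosphorothioate, 5-methylcytidine), ~24 h. Factor 11 mRNA quantified by qRT-PCR, normalised to RIBOGREEN total RNA. Reported as percent inhibition versus untreated cells.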

[9] = system: human Factor 11 mRNA; assay: Dose-dependent inhibition of human Factor 11 in HepG2 cells, electroporation 123.46-10,000 nM (Example 31); format: cell-based
Protocol: Cells were plated at a density of 20,000 cells per well and transfected using electroporation with 123.46 nM, 370.37 nM, 1,111.11 nM, 3,333.33 nM and 10,000 nM concentrations of antisense oligonucleotide, as specified in Table 45. After a treatment period of approximately 16 hours, RNA was isolated from the cells and Factor 11 mRNA levels were measured by quantitative real-time PCR. Human Factor 11 primer probe set RTS 2966 was used to measure mRNA levels. Factor 11 mRNA levels were adjusted according to total RNA content, as measured by RIBOGREEN. Results are presented as percent inhibition of Factor 11, relative to untreated control cells.

[10] = Viscosity of ISIS antisense oligonucleotides, micro-viscometer at 25 °C (Example 47); format: physicochemical
Protocol: The viscosity of antisense oligonucleotides targeting human Factor 11 was measured with the aim of screening out antisense oligonucleotides which have a viscosity more than 40 cP at a concentration of 165-185 mg/mL.
ISIS oligonucleotides (32-35 mg) were weighed into a glass vial, 120 μL of water was added and the antisense oligonucleotide was dissolved into solution by heating the vial at 50° C. Part of (75 μL) the pre-heated sample was pipetted to a micro-viscometer (Cambridge). The temperature of the micro-viscometter was set to 25° C. and the viscosity of the sample was measured. Another part (20 μL) of the pre-heated sample was pipetted into 10 mL of water for UV reading at 260 nM at 85° C. (Cary UV instrument).

Row | Substance | ALT [1] [IU/L] | AST [1] [IU/L] | Bilirubin [1] [mg/dL] | Cholesterol [1] [mg/dL] | BUN [2] [mg/dL] | HCT [3] [%] | Lymphocyte [3] [cells/μL] | Neutrophil [3] [cells/μL] | Platelets [3] | RBC [3] | WBC [3] | hemoglobin [3] [g/dL] | monocytes [3] [cells/μL] | also measured
1 | ISIS 416855: MOE gapmer, nucleobases 1275 to 1318 of SEQ ID NO: 1 (Table 8) (antisense CATTGGTGCACAGTTTCTGG; MOE gapmer, wing and gap sizes not given here) | 786 | 580 | 0.25 | 162 | 23 | 50 | 4236 | 1443 | 784 10^3/μL | 9 10^6/μL | 6 10^3/μL | 14 | 263 | –
2 | ISIS 412223: 5-10-5 MOE gapmer ACAGTTTCTGGCAGGCCTCG (sugars from the 5' end e5 d10 e5, backbone and methylation of C not given here) | 60 | 125 | 0.20 | 117 | 28 | 48 | 4599 | 1756 | 862 10^3/μL | 9 10^6/μL | 7 10^3/μL | 15 | 200 | ALT [4]: 85 IU/L; AST [4]: 180 IU/L; Albumin [4]: 5; Bilirubin [4]: 0.14 mg/dL; BUN [5]: 24 mg/dL; Creatinine [5]: 46 mg/dL; Total urine protein [5]: 224 mg/dL; Urine protein/creatinine ratio [5]: 4.6; HCT [6]: 41%; Lymphocyte [6]: 16990; Neutrophil [6]: 1826; Platelets [6]: 567; RBC [6]: 7.2 10^6/μL; WBC [6]: 20 10^3/μL; hemoglobin [6]: 13.1 g/dL
3 | ISIS 416863: MOE gapmer, nucleobases 1275 to 1318 of SEQ ID NO: 1 (Table 8) (antisense CAGCGGACGGCATTGGTGCA; MOE gapmer, wing and gap sizes not given here) | 41 | 101 | 0.24 | 118 | 22 | 48 | 5617 | 1330 | 1131 10^3/μL | 9 10^6/μL | 7 10^3/μL | 14 | 226 | ALT [4]: 47 IU/L; AST [4]: 78 IU/L; Albumin [4]: 4; Bilirubin [4]: 0.13 mg/dL; BUN [5]: 29 mg/dL; Creatinine [5]: 73 mg/dL; Total urine protein [5]: 269 mg/dL; Urine protein/creatinine ratio [5]: 3.8; HCT [6]: 45%; Lymphocyte [6]: 14669; Neutrophil [6]: 1720; Platelets [6]: 674; RBC [6]: 7.6 10^6/μL; WBC [6]: 17 10^3/μL; hemoglobin [6]: 14.1 g/dL
4 | ISIS 416862: MOE gapmer, nucleobases 1275 to 1318 of SEQ ID NO: 1 (Table 8) (antisense AGCGGACGGCATTGGTGCAC; MOE gapmer, wing and gap sizes not given here) | 225 | 172 | 0.36 | 103 | 21 | 49 | 4445 | 1118 | 1007 10^3/μL | 9 10^6/μL | 6 10^3/μL | 14 | 174 | –
5 | ISIS 445513, (antisense GCAGCGGACGGCATTGGTGC; 6-8-6 MOE gapmer, further chemistry not given here) | – | – | – | – | – | – | – | – | – | – | – | – | – | HCT [7]: 50%; RBC [7]: 9.8; WBC [7]: 7; hemoglobin [7]: 15.0 g/dL
6 | ISIS 416854: MOE gapmer, nucleobases 1275 to 1318 of SEQ ID NO: 1 (Table 8) (antisense ATTGGTGCACAGTTTCTGGC; MOE gapmer, wing and gap sizes not given here) | 1613 | 1140 | 0.21 | 199 | 27 | 43 | 9375 | 2082 | 1060 10^3/μL | 9 10^6/μL | 12 10^3/μL | 13 | 455 | –
7 | ISIS 416857: MOE gapmer, nucleobases 1275 to 1318 of SEQ ID NO: 1 (Table 8) (antisense CGGCATTGGTGCACAGTTTC; MOE gapmer, wing and gap sizes not given here) | 370 | 269 | 0.22 | 94 | 17 | 53 | 3697 | 1334 | 603 10^3/μL | 10 10^6/μL | 6 10^3/μL | 15 | 215 | –
8 | 445505 (antisense e[5mC]*eG*eG*e[5mC]*eA*eT*dT*dG*dG*dT*dG*d[5mC]*dA*d[5mC]*eA*eG*eT*eT*eT*e[5mC]) [compound 445505] | – | – | – | – | – | – | – | – | – | – | – | – | – | Percent inhibition of human Factor 11 mRNA levels [8]: 89%; Percent inhibition of Factor 11 mRNA at 123.47 nM ([9]; electroporation, 123.47 nM, approx. 16 hours, relative to untreated control cells): 12%; Percent inhibition of Factor 11 mRNA at 370.37 nM ([9]; electroporation, 370.37 nM, approx. 16 hours, relative to untreated control cells): 30%; Percent inhibition of Factor 11 mRNA at 1,111.11 nM ([9]; electroporation, 1,111.11 nM, approx. 16 hours, relative to untreated control cells): 39%; Percent inhibition of Factor 11 mRNA at 3,333.33 nM ([9]; electroporation, 3,333.33 nM, approx. 16 hours, relative to untreated control cells): 59%; Percent inhibition of Factor 11 mRNA at 10,000.0 nM ([9]; electroporation, 10,000.0 nM, approx. 16 hours, relative to untreated control cells): 77%; IC50 ([9]; electroporation, Factor 11 mRNA expression): 1.8 µM; Concentration ([10]; concentration of the viscosity sample, UV reading at 260 nM at 85° C.): 155 mg/mL; Viscosity ([10]; in water, micro-viscometer at 25° C., at the concentration of the same line): 9 cP
9 | ISIS 416865: MOE gapmer, nucleobases 1275 to 1318 of SEQ ID NO: 1 (Table 8) (antisense TGGCAGCGGACGGCATTGGT; MOE gapmer, wing and gap sizes not given here) | 383 | 262 | 0.27 | 95 | 20 | 50 | 5148 | 1227 | 872 10^3/μL | 9 10^6/μL | 7 10^3/μL | 14 | 315 | –
10 | ISIS 416849: MOE gapmer, nucleobases 1275 to 1318 of SEQ ID NO: 1 (Table 8) (antisense GCACAGTTTCTGGCAGGCCT; MOE gapmer, wing and gap sizes not given here) | 1056 | 582 | 0.22 | 109 | 23 | 48 | 6967 | 1522 | 744 10^3/μL | 9 10^6/μL | 9 10^3/μL | 14 | 253 | –
11 | ISIS 416853: MOE gapmer, nucleobases 1275 to 1318 of SEQ ID NO: 1 (Table 8) (antisense TTGGTGCACAGTTTCTGGCA; MOE gapmer, wing and gap sizes not given here) | 1023 | 1087 | 0.25 | 164 | 22 | 56 | 5184 | 2040 | 801 10^3/μL | 11 10^6/μL | 8 10^3/μL | 17 | 225 | –
